Converted amounts (≈) assume the structure as drawn. Where two headings read alike, the source gives them in different places. Values belong to the compound of their own block, whether it stands above or below them.
Experiments:
[1] = In vitro survival of control bone marrow cells exposed to compound (Table I); format: cell-based; details: human, 10 μg/ml
Text: (§1) In vitro activity against certain human tumor cell lines. CELL LINES: Eight different established human cell lines (CALU (lung), COLO320 (colon), H578St (breast), HT-29 (colon), MCF-7 (breast), OM-1 (colon), SKLU (lung), and SKMES (lung) and two control cell lines (bone marrow cell lines and/or fibroblasts) were utilized. All cell lines were obtained from the Tumor Cloning Laboratory, Institute for Drug Development, Cancer Therapy and Research Center, San Antonio, Tex. All cell lines grew as monolayers in the appropriate culture medium supplemented with heat-inactivated calf serum. All reagents were obtained from Grand Island Biological Co., Grand Island, N.Y.
IN VITRO EXPOSURE OF TUMOR CELLS TO COMPOUNDS: Stock solutions of intravenous (iv) formulations of certain of the compounds of the present invention (as shown in Table I below), as well as intravenous formulations of 5-FU (control) were used. The iv formulations of the compounds of the present invention were prepared with sterile buffered saline and stored at -70° C. until required for testing.
(§2) Following trypsinization, tumor cells were suspended in tissue culture medium and exposed to the antitumor agents continuously at three different concentrations: 10, 1 and 0.1 μg/ml.
RADIOMETRIC MEASUREMENT OF GROWTH INHIBITION: Growth inhibition was assessed with the BACTEC System 460 (Johnston Laboratories, Towson, Md.) after addition of the antitumor agent to the cells in the respective growth medium containing ^14 C-glucose at a final concentration of 2 μCi/ml. (See generally, C. Arteaga, et al., A Radiometric Method for Evaluation of Chemotherapy Sensitivity: Results of Screening a Panel of Human Breast Cancer Cell Lines, Cancer Research, 47, 6248-6253, (1987).)
(§3) Two mls of the tumor cell suspension containing radioactive glucose were seeded into sterile, disposable 15 ml vials by injection through self-sealing rubber-aluminum caps. […] The seeded vials were then incubated at 37° C. Measurement of the release of ^14 CO2 resulting from the metabolism of ^14 C-glucose were performed on days 6, 9, 12, and 15 in the BACTEC instrument. This instrument flushes the ^14 CO2 containing air out of the vials into an ionization chamber that converts dpm to growth index values. Chemotherapy sensitivity was calculated by comparing the growth index values of drug-treated vials to that observed in control vials. Each data point represents triplicate values.
(§4) All compounds were compared on an equimilimolar level.
The data presented in Table I are compared to results achieved with 5-FU as the control. All compounds were dosed on an equimilimolar basis. Inhibitory concentration (IC 50) is defined as the concentration required to kill 50% of the untreated cancer cells. Although the IC 50 of certain of the compounds listed in Table I may be higher than that for 5-FU (the control), the compounds of the present invention are generally less toxic to normal cells such as bone marrow or fibroblasts. […] Additionally, because of their lower toxicity to normal cells, it is anticipated that the present compounds may be dosed at a higher rate to selectively increase toxicity to the cancer cells. In this regard, a therapeutic ratio for a given compound is typically determined by the following calculation. [formula] A therapeutic ratio of <80% is considered active. In Vivo Evaluation

HS578T [2] = test: In vitro radiometric (BACTEC) growth inhibition of human tumor cell line HS578T (breast); format: cell-based; details: Hs-578T; for viability at 10 µg/mL: 10 μg/ml, read-out: % survival tumor
Text: as §1
(§5) The iv formulations of the compounds of the present invention were prepared with sterile buffered saline and stored at -70° C. until required for testing.
as §2
(§6) RADIOMETRIC MEASUREMENT OF GROWTH INHIBITION: Growth inhibition was assessed with the BACTEC System 460 (Johnston Laboratories, Towson, Md.) after addition of the antitumor agent to the cells in the respective growth medium containing ^14 C-glucose at a final concentration of 2 μCi/ml.
as §3, with “Chemotherapy sensitivity was calculated by comparing the growth index values of drug-treated vials to that observed in control vials.” left out
as §4
(§7) All compounds were dosed on an equimilimolar basis. […] [formula] A therapeutic ratio of <80% is considered active. In Vivo Evaluation

SKLU = test: In vitro radiometric (BACTEC) growth inhibition of human tumor cell line SKLU (lung); format: cell-based; details: for viability at 10 µg/mL: 10 μg/ml
Text: as §1, §5, §2, §6
as §3, with “Chemotherapy sensitivity was calculated by comparing the growth index values of drug-treated vials to that observed in control vials.” left out
as §4, §7

SKMES = test: In vitro radiometric (BACTEC) growth inhibition of human tumor cell line SKMES (lung); format: cell-based
Text: as §1, §5, §2, §6
as §3, with “Chemotherapy sensitivity was calculated by comparing the growth index values of drug-treated vials to that observed in control vials.” left out
as §4, §7

MCF-7 = test: In vitro radiometric (BACTEC) growth inhibition of human tumor cell line MCF-7 (breast); format: cell-based; details: for viability at 10 µg/mL: MCF7, MCF-7, 10 μg/ml
Text: as §1, §5, §2, §6
as §3, with “Chemotherapy sensitivity was calculated by comparing the growth index values of drug-treated vials to that observed in control vials.” left out
as §4, §7

OM-1 = test: In vitro radiometric (BACTEC) growth inhibition of human tumor cell line OM-1 (colon); format: cell-based; details: for viability at 10 µg/mL: OM-1, 10 μg/ml
Text: as §1, §5, §2, §6
as §3, with “Chemotherapy sensitivity was calculated by comparing the growth index values of drug-treated vials to that observed in control vials.” left out
as §4, §7

HT-29 = test: In vitro radiometric (BACTEC) growth inhibition of human tumor cell line HT-29 (colon); format: cell-based; details: for viability at 10 µg/mL: 10 μg/ml
Text: as §1, §5, §2, §6
as §3, with “Chemotherapy sensitivity was calculated by comparing the growth index values of drug-treated vials to that observed in control vials.” left out
as §4, §7

COLO320 = test: In vitro radiometric (BACTEC) growth inhibition of human tumor cell line COLO320 (colon); format: cell-based
Text: as §1, with “N.Y. […]” for “N.Y.”
(§8) RADIOMETRIC MEASUREMENT OF GROWTH INHIBITION: Growth inhibition was assessed with the BACTEC System 460 (Johnston Laboratories, Towson, Md.) after addition of the antitumor agent to the cells in the respective growth medium containing ^14 C-glucose at a final concentration of 2 μCi/ml. […]
(§9) Two mls of the tumor cell suspension containing radioactive glucose were seeded into sterile, disposable 15 ml vials by injection through self-sealing rubber-aluminum caps. […] Chemotherapy sensitivity was calculated by comparing the growth index values of drug-treated vials to that observed in control vials. […]

HS578T [3] = test: In vitro radiometric (BACTEC) growth inhibition of human tumor cell line HS578T (breast); format: cell-based; details: Hs-578T, 6 μg/ml, read-out: % survival tumor
[4] = background statement on marketed drug; cited from earlier work
CALU = test: In vitro radiometric (BACTEC) growth inhibition of human tumor cell line CALU (lung); format: cell-based
Text: as §1, with “N.Y. […]” for “N.Y.”
as §8, §9

[5] = HS578T, continuous exposure, read-out: IC 50
[6] = SKLU, read-out: % survival tumor
[7] = SKLU, continuous exposure, read-out: IC 50
[8] = MCF7, MCF-7, continuous exposure, read-out: IC 50
[9] = OM-1, continuous exposure, read-out: IC 50
[10] = continuous exposure, read-out: IC 50
[11] = 6 μg/ml, read-out: % survival tumor

SMILES: O=c1ccn([C@H]2OC[C@H](O)[C@H](O)[C@@H]2O)c(=O)[nH]1 [(3), β-L-ribopyranosyluracil]
viability [1]: 96% | viability at 10 µg/mL (HS578T [2]; HS578T): 86.7% | IC50 (HS578T [2]; [5]): > 10 µg/mL

SMILES: O=c1[nH]c(=O)n([C@H]2OC[C@H](O)[C@H](O)[C@@H]2O)cc1F [(5), β-L-ribopyranosyl-5-fluorouracil]
viability [1]: 116% | viability at 10 µg/mL (SKLU; [6]): 90.1% | IC50 (SKLU; [7]): > 10 µg/mL | viability at 10 µg/mL (SKMES; SKMES, 10 μg/ml, read-out: % survival tumor): 68.2% | IC50 (SKMES; SKMES, continuous exposure, read-out: IC 50): > 10 µg/mL | viability at 10 µg/mL (MCF-7; read-out: % survival tumor): 76.2% | IC50 (MCF-7; [8]): > 10 µg/mL

SMILES: Nc1ccn([C@H]2OC[C@H](O)[C@H](O)[C@@H]2O)c(=O)n1 [(8), β-L-ribopyranosylcytosine]
viability [1]: 93.1% | viability at 10 µg/mL (HS578T [2]; HS578T): 89.2% | IC50 (HS578T [2]; [5]): > 10 µg/mL | viability at 10 µg/mL (OM-1; read-out: % survival tumor): 78.9% | IC50 (OM-1; [9]): > 10 µg/mL | viability at 10 µg/mL (MCF-7; read-out: % survival tumor): 72.2% | IC50 (MCF-7; [8]): > 10 µg/mL

SMILES: Nc1ncnc2c1ncn2[C@H]1OC[C@H](O)[C@H](O)[C@@H]1O [(11)]
viability [1]: 94.1% | viability at 10 µg/mL (HS578T [2]; HS578T): 43.6% | IC50 (HS578T [2]; [5]): 7.8 µg/mL (≈ 29.2 µM) | viability at 10 µg/mL (OM-1; read-out: % survival tumor): 41.6% | IC50 (OM-1; [9]): 8.3 µg/mL (≈ 31.1 µM)

SMILES: O=c1[nH]cc(F)c(=O)[nH]1 [Compound 5-FU, 5-fluorouracil, reference compound]
viability at 6 µg/mL (COLO320; COLO 320, 6 μg/ml, read-out: % survival tumor): 1% | IC50 (COLO320; COLO 320, continuous exposure): < 0.6 µg/mL | IC50 (HS578T [2]): < 0.6 µg/mL | IC50 (OM-1): 1.47 µg/mL (≈ 11.3 µM) | viability at 6 µg/mL (OM-1; OM-1, 6 μg/ml, read-out: % survival tumor): 20.1% | viability at 6 µg/mL (HS578T [3]): 12.5% | side effects [4]: GI side effects like nausea, vomiting and diarrhea, leukopenia, thrombocytopenia, alopecia | viability at 6 µg/mL (CALU; [11]): 9.9% | IC50 (CALU; continuous exposure): < 0.6 µg/mL | IC50 (SKLU): 1.05 µg/mL (≈ 8.07 µM) | viability at 6 µg/mL (SKLU; SKLU, 6 μg/ml, read-out: % survival tumor): 24.7% | IC50 (SKMES): < 0.6 µg/mL | viability at 6 µg/mL (SKMES; SKMES, 6 μg/ml, read-out: % survival tumor): 29.1% | IC50 (HT-29): 0.61 µg/mL (≈ 4.69 µM) | viability at 6 µg/mL (HT-29; [11]): 5.7% | IC50 (MCF-7; MCF7): < 0.6 µg/mL | viability at 6 µg/mL (MCF-7; MCF7, MCF-7, 6 μg/ml, read-out: % survival tumor): 4.2%

More lines, main results first:

IC50 (HT-29; [10]): > 10 µg/mL
SMILES: Nc1nc2c(ncn2[C@H]2OC[C@H](O)[C@H](O)[C@@H]2O)c(=O)[nH]1 [(14), β-L-ribopyranosylguanine]
viability [1]: 106% | viability at 10 µg/mL (HT-29; read-out: % survival tumor): 94.8%

IC50 (HS578T [2]; [5]): 50.8 µg/mL (≈ 194 µM) | IC50 (OM-1; [9]): 65.1 µg/mL (≈ 248 µM) | IC50 (SKLU; [7]): 57.1 µg/mL (≈ 218 µM) | IC50 (HT-29; [10]): 119 µg/mL (≈ 454 µM)
SMILES: O=c1[nH]c(=O)n([C@@H]2OC[C@H](O)[C@H](O)[C@@H]2O)cc1F [(18), α-L-ribopyranosyl-5-fluorouracil]
viability [1]: 166% | viability at 10 µg/mL (HS578T [2]; HS578T): 83.6% | viability at 10 µg/mL (OM-1; read-out: % survival tumor): 82.5% | viability at 10 µg/mL (SKLU; [6]): 78.4% | viability at 10 µg/mL (HT-29; read-out: % survival tumor): 83.1%

From patent US5885972A, “L-pyranosyl nucleosides” (Genencor International, Inc., priority 1996, dated 1999)
